Data on one compound can be found in patent US5232933A, “Method for treatment of neurodegenerative diseases” (R. J. Reynolds Tobacco Company, priority 1992, dated 1993).

SMILES strings stand for the structures.

This experiment has as its target high affinity nicotinic receptors. Briefly: Inhibition of L-[3H]nicotine binding to mouse brain membranes. Also noted: species or system Mice (DBA strain). Conditions: 2 hr incubation at 4° C., Ki calculated from IC50 by method of Cheng. As for the experimental part: Mice (DBA strain) were maintained on a 12 hour light/dark cycle and were allowed free access to water and food supplied by Wayne Lab Blox, Madison, Wis. Animals used in the present studies were 60 to 90 days of age and weighed 20 to 25 g. Brain membrane preparations were obtained from pooled brain tissue of both males and females.
Mice were killed by cervical dislocation. Brains were removed and placed on an ice-cold platform. […] Protein was determined by the method of Lowry, et al., J. Biol. Chem., Vol. 193, pp. 265-275 (1951), using bovine serum albumin as the standard.
The binding of L-[^3 H]nicotine was measured using a modification of the method of Romano, et al., Science, Vol 210 pp. 647-650 (1980) as described previously by Marks, et al., Mol. Pharmacol., Vol. 30, pp. 427-436 (1986). The binding of L-[^3 H]nicotine was measured using a 2 hr. incubation at 4° C. […] Nonspecific binding was determined by inclusion of 10 μM nonradioactive nicotine in the incubations. The inhibition of L-[^3 H]nicotine binding by test compounds was determined by including one of eight different concentrations of the test compound in the incubation. […] Inhibition constant (Ki values) were calculated from the IC50 values using the method of Cheng, et al., Biochem. Pharmacol., Vol. 22, pp. 3099-3108 (1973). […]

Take `c1ccc(C2CCCN2)nc1` (racemic) [alpha-nornicotine]: the Ki is 5.7 µM.

By Ki is commonly meant the equilibrium dissociation constant of an inhibitor or competing ligand from its target.
